Consider 15 molecules from BindingDB's records for doi:10.1021/jm400664x (Washington University, 2013).

For this experiment, the target named is T1, Vesicular acetylcholine transporter (Homo sapiens, UniProt Q16572).
T1 sequence (Q16572 whole entry): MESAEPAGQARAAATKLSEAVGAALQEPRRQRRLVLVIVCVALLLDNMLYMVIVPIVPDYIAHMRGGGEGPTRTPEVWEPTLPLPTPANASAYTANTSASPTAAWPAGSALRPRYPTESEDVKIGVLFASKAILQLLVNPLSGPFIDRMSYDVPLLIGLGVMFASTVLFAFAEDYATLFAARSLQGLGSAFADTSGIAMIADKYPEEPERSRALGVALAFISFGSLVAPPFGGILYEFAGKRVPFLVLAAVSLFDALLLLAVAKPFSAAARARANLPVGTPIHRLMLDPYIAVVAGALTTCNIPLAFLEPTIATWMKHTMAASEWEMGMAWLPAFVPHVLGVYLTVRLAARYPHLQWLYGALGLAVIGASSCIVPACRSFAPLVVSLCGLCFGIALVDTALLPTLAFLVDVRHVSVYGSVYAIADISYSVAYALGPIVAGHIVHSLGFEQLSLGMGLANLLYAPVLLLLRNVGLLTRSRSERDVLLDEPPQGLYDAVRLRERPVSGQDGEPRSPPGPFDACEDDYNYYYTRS
Put plainly: Displacement of (-)-[3H]vesamicol from human VAChT expressed in rat PC12 cell membrane after 20 hrs.

Molecules are shown by their SMILES. pKi: −log10 of the molar value.

A word on the pKi: it is the Ki on a negative log10 scale, so that one unit is a factor of ten. A lower pKi goes with a large Ki.

Molecule `Cn1cccc1C(=O)C1CCN([C@@H]2Cc3cccc(N)c3C[C@H]2O)CC1` had a pKi of 5.64.
Regarding `Cn1cccc1C(=O)C1CCN([C@@H]2Cc3c(N)cccc3C[C@H]2O)CC1`, the pKi was 7.41.
Under `O=C(c1ncccc1OCCF)C1CCN([C@@H]2Cc3ccccc3C[C@H]2O)CC1` stands 7.12; under `O=C(c1ccc(OCCF)nc1)C1CCN([C@@H]2Cc3ccccc3C[C@H]2O)CC1`, 7.42.
On to `CNc1ccc(C(=O)C2CCN([C@@H]3Cc4ccccc4C[C@H]3O)CC2)cc1`, for which the pKi is 8.52.
Under `CN(C)c1ccc(C(=O)C2CCN([C@@H]3Cc4ccccc4C[C@H]3O)CC2)cc1` stands 9.03.
Regarding `O=C(c1cccnc1F)C1CCN([C@@H]2Cc3ccccc3C[C@H]2O)CC1`, the negative logarithm of the Ki (pKi) was 7.89.
`O=C(c1ccc(F)nc1)C1CCN([C@@H]2Cc3ccccc3C[C@H]2O)CC1`: the negative-log Ki (pKi) is 7.59.
In turn, `Cn1c(C(=O)C2CCN([C@@H]3Cc4ccccc4C[C@H]3O)CC2)cccc1=O` gave a pKi of 6.74.
Regarding `Cn1ccc(C(=O)C2CCN([C@@H]3Cc4ccccc4C[C@H]3O)CC2)cc1=O`, the pKi was 7.18.
Then `O=C(c1cncc(F)c1)C1CCN([C@@H]2Cc3ccccc3C[C@H]2O)CC1`, with 8.00; and `COc1cccnc1C(=O)C1CCN([C@@H]2Cc3ccccc3C[C@H]2O)CC1`, with 6.92; and `O=C(c1cccnc1)C1CCN([C@@H]2Cc3ccccc3C[C@H]2O)CC1`, with 7.62.
Then `Cn1ccc(C(=O)C2CCN([C@@H]3Cc4ccccc4C[C@H]3O)CC2)c1`, with 7.57.
In the case of `Cn1cccc1C(=O)C1CCN([C@@H]2Cc3ccccc3C[C@H]2O)CC1`, the negative logarithm of the Ki (pKi) was 7.74.
